Values of other authors as cited in patent publication US6436417B1, “Acne treatment compositions” (Blistex Inc., priority 2001, dated 2002).

How the values were obtained:
[1] = not given; remark: listed apart in the source
[2] = in sunlight and in the presence of ferric salts

- pH of the aqueous solution (1 gram in about 460 ml of water at room temperature): 2.4
- solubility in water (volume of water dissolving 1 gram) (1 gram, water, room temperature): about 460 ml
- solubility in water (water, room temperature): about 0.2 % by weight
- solubility in alcohol (volume of alcohol dissolving 1 gram) [1]: about 2.7 ml
- stability to discoloration [2]: strong tendency to discolor
Compound: O=C(O)c1ccccc1O [Salicylic acid, salicylic acid]
